# Read-outs that look alike come from different tables or passages of the source.
# Target: T1, histone deacetylase, subtype 1 (HDAC1) (Homo sapiens, UniProt Q13547)
# T1 construct: Flag; made in house
# Test: HDAC1-Flag assay (in vitro fluorescent deacetylation assay)
# Assay type: biochemical
# Details: epitope-tagged human HDAC1 complex, substrate at Km, mean ± spread (N), read-out: HDAC Inhibition (IC50) nm
# Method: Novel compounds were tested for their ability to inhibit histone deacetylase, subtype 1 (HDAC1) using an in vitro deacetylation assay. The enzyme source for this assay was an epitope-tagged human HDAC1 complex immuno-purified from stably expressing mammalian cells. The substrate consisted of a commercial product containing an acetylated lysine side chain (BIOMOL Research Laboratories, Inc., Plymouth Meeting, Pa.). Upon deacetylation of the substrate by incubation with the purified HDAC1 complex, a fluorophore is produced that is directly proportional to the level of deacetylation.
# [1] = Table 2, compounds of formula III
# [2] = Table 3, compounds of formula IV
# [3] = Table 1, compounds of formula II
# T1 sequence (Q13547 whole entry): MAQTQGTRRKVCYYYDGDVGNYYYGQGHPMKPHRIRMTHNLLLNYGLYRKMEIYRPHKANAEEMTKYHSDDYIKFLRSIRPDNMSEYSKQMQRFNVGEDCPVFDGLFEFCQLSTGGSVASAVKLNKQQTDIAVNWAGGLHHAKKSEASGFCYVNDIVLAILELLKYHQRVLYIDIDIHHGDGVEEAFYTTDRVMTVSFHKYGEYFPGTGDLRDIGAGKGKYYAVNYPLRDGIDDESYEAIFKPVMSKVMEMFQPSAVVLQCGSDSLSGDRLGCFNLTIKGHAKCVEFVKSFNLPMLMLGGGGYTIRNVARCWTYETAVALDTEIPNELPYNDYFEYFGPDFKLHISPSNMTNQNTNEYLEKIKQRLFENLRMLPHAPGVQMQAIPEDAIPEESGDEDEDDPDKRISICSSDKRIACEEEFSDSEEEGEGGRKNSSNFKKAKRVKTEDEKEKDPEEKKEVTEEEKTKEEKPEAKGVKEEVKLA
IC50 [1],IC50 [3],Compound,also measured
2280 ± 889 nM,,"O=C(CCCCCN(CC(=O)N1CCOCC1)CC(=O)N1CCOCC1)NO [Compound 57, 6-[Bis-(2-morpholin-4-yl-2-oxo-ethyl)-amino]-hexanoic acid hydroxyamide]",
,,"O=C(CCCC(=O)N1CCN(c2cccc(Cl)c2)CC1)NO [Compound 72, 5-[4-(3-Chloro-phenyl)-piperazin-1-yl]-5-oxo-pentanoic acid hydroxyamide]",IC50 [2]: 474 ± 36 nM
,,O=C(CCC(=O)N1CCN(c2ccc(Cl)cc2)CC1)NO [Compound 67],IC50 [2]: 16200 nM
,,O=C(CCC(=O)N1CCN(c2ccccc2Cl)CC1)NO [Compound 68],IC50 [2]: 73300 nM
288 ± 53 nM,,"CC(C)CNC(=O)CN(CCCCCC(=O)NO)CC(=O)NCC(C)C [Compound 51, 6-[Bis-(isobutylcarbamoyl-methyl)-amino]-hexanoic acid hydroxyamide]",
181 ± 23.3 nM,,"O=C(CCCCCCCN(CC(=O)NCc1ccccc1)CC(=O)NCc1ccccc1)NO [Compound 47, 8-[Bis-(benzylcarbamoyl-methyl)-amino]-octanoic acid hydroxyamide]",
,137 ± 18.3 nM,"O=C(CCCCCC(=O)N(CC(=O)Nc1cccc(Oc2ccccc2)c1)CC(=O)Nc1cccc(Oc2ccccc2)c1)NO [Compound 30, Heptanedioic acid bis-[(3-phenoxy-phenylcarbamoyl)-methyl]-amide hydroxyamide]",
,82 ± 9.8 nM,Hexanedioic acid bis-(quinolin-8-ylcarbamoylmethyl)-amide hydroxyamide [Compound 15],
,40 ± 8.4 nM,"O=C(CCCCCC(=O)N(CC(=O)Nc1ccc(N2CCOCC2)cc1)CC(=O)Nc1ccc(N2CCOCC2)cc1)NO [Compound 27, Heptanedioic acid bis-[(4-morpholin-4-yl-phenylcarbamoyl)-methyl]-amide hydroxyamide]",
2080 ± 383 nM,,"O=C(CCCCCN(CC(=O)N1CCCCC1)CC(=O)N1CCCCC1)NO [Compound 56, 6-[Bis-(2-oxo-2-piperidin-1-yl-ethyl)-amino]-hexanoic acid hydroxyamide]",
,58 ± 9.8 nM,"O=C(CCCCCC(=O)N(CC(=O)NCCc1ccccc1)CC(=O)NCCc1ccccc1)NO [Compound 12, Heptanedioic acid bis-(phenethylcarbamoyl-methyl)-amide hydroxyamide]",
311 ± 24.7 nM,,"O=C(CCCCCN(CC(=O)NCC1CCCCC1)CC(=O)NCC1CCCCC1)NO [Compound 52, 6-{Bis-[(cyclohexylmethyl-carbamoyl)-methyl]-amino}-hexanoic acid hydroxyamide]",
873 ± 57.9 nM,,"O=C(CCCCCN(CC(=O)N1CCC(Cc2ccccc2)CC1)CC(=O)N1CCC(Cc2ccccc2)CC1)NO [Compound 53, 6-{Bis-[2-(4-benzyl-piperidin-1-yl)-2-oxo-ethyl]-amino}-hexanoic acid hydroxyamide]",
133 ± 59.3 nM,,"O=C(CCCCN(CC(=O)Nc1ccccc1)CC(=O)Nc1ccccc1)NO [Compound 44, 5-(Bis-phenylcarbamoylmethyl-amino)-pentanoic acid hydroxyamide]",
,,O=C(CCC(=O)N1CCN(c2ccccc2)CC1)NO [Compound 66],IC50 [2]: 44300 nM
,159 ± 159 nM,"O=C(CCCCCC(=O)N(CC(=O)Nc1cccc(OCc2ccccc2)c1)CC(=O)Nc1cccc(OCc2ccccc2)c1)NO [Compound 18, Heptanedioic acid bis-[(3-benzyloxy-phenylcarbamoyl)-methyl]-amide hydroxyamide]",
,152 ± 48.7 nM,CC(C)(C)c1ccc(NC(=O)CN(CC(=O)Nc2ccc(C(C)(C)C)cc2)C(=O)CCCCCC(=O)NO)cc1 [Compound 32],
,91.5 ± 58.6 nM,"O=C(CCCCCC(=O)N(CC(=O)Nc1ccc(OCc2ccccc2)cc1)CC(=O)Nc1ccc(OCc2ccccc2)cc1)NO [Compound 16, Heptanedioic acid bis-[(4-benzyloxy-phenylcarbamoyl)-methyl]-amide hydroxyamide]",
55.5 ± 0.7 nM,,"O=C(CCCCCN(CC(=O)NCCc1ccccc1)CC(=O)NCCc1ccccc1)NO [Compound 42, 6-[Bis-(phenethylcarbamoyl-methyl)-amino]-hexanoic acid hydroxyamide]",

# Source: patent US20090023718A1 (Aton Pharma, Inc., priority 2003, published 2009)
